From patent US10544138B2, “Tricyclic kinase inhibitors of MELK and methods of use” (Dana-Farber Cancer Institute, Inc., priority 2015, dated 2020)

How the values were obtained:
U2OS cells = experiment: Live-cell imaging of mitotic progression in U2OS-GFP-H2B cells; format: cell-based, human; conditions: 1 μM, asynchronized U2OS cells; control 31.1 min
Protocol: U2OS-GFP-H2B cells were treated with vehicle control (0.02% DMSO, v/v) or 1 μM THZ-4-63-1, and subjected to live imaging. Time is given in hours:minutes, relative to the initial time of drug treatment. The arrow points to chromosomes that haven't incorporated into the metaphase plate. […] MDA-MB-468 cells expressing tet-on-shMELK and GFPH2B cells were treated with doxycycline for three days, before subjected to live imaging. Panel D contains images of immunoblotting of lysates from cells treated as in Panel C. Panel E contains images showing mitotic cell death in a cell treated with THZ-4-63-1. The table indicates the quantification of cell death events. Panel F contains images showing that treatment with THZ-4-63-1 impairs chromosome alignment. Cells were treated with DMSO control, or THZ-4-63-1 (5 μM) for 4 hours, followed by MG132 (10 μM) for 1 h. Cells were fixed and stained with anti-CREST, anti-α-tubulin, and DAPI to visualize chromosomes and kinetochores. The histogram indicates the quantifications of cells in metaphase with misaligned chromosomes.
To utilize this novel compound for probing the roles of MELK in mitosis, we first treated asynchronized U2OS cells with THZ-4-63-1 (1 μM), and subjected the cells for live-cell imaging. The fusion protein GFP-Histone H2B was stably introduced into the cells to facilitate observing chromosome dynamics^2,7. […]

[1] = system: Cyclin B1, MELK, and Aurora B; experiment: Spindle assembly checkpoint signaling, abundance of mitotic factors by immunoblotting; format: cell-based; conditions: nocodazole- or paclitaxel-arrested cells
Protocol: Mitotic cells were treated with THZ-4-63-1 at indicated concentrations for 4 h. Cells were collected for immunoblotting. Panel B contains time-lapse images of U2OS-(H2B-GFP) cells treated with THZ-4-63-1 (5 μM). […] Panel C contains blots showing proteasome-mediated degradation of Cyclin B1, Aurora B and MELK in THZ-4-63-1-induced mitotic slippage. Mitotic cells were treated as in Panel A with THZ-4-63-1 (5 μM), or MG132 (10 μM), or both for 4 h. Panel D contains a graph showing quantification of cell proliferation in the indicated breast cancer cell lines, which were treated with vehicle control or THZ-4-63-1 for one week (Top) and also contains bright-field images acquired from control cells or cells treated with THZ-4-63-1 (111 nM) (Bottom). […] Cells were treated with indicated drugs, and harvested in ten days for quantification of cell growth. The bold curve depicts the theoretic prediction of an additive action between paclitaxel and THZ-4-63-1.
In Panel A, paclitaxel-arrested cells were treated with THZ-4-63-1 at indicated concentrations for 4 h. Cells were collected for immunoblotting. In Panel B, nocodazole- (top) or paclitaxel-arrested mitotic cells were treated with vehicle control or THZ-4-63-1 (5 μM) for increasing time. Cell lysates were collected for immunoblotting. […]

MARK1 = MARK1 (Homo sapiens, UniProt Q9P0L2); experiment: Recombinant AMPK family kinase assay, MARK1; format: biochemical; conditions: recombinant kinases
Protocol: (§1) […] assays were performed with recombinant protein of the indicated mitotic kinase (left) and AMPK family kinases (right) in the presence of THZ-4-63-1. […] Cells were treated with nocodazole (100 ng/ml) for 18 h or not treated (Asyn., asynchronous). Nocodazole-arrested mitotic cells (M) were isolated via shake-off. The attached cells enriched in G2 phase (G2) were harvested. A portion of the mitotic cells were washed off nocodazole and released into G1 phase after 4 hours of incubation (G1). […] In Panel D, mitotic lysates were prepared from the indicated cells, and treated with λ-phosphatase at 30° C. In Panel E, nocodazole-arrested mitotic cells were treated with increasing concentration of THZ-4-63-1 for 30 min. Cell lysates were subjected to immunoblotting.
(§2) To discover a selective MELK inhibitor, a few molecule scaffolds with the potential of binding to MELK were identified, including 2,4-disubstituted pyrimidines and benzonaphthyridinones. […] To investigate if THZ-4-63-1 confers selective inhibition on MELK, we tested its effect on other mitotic kinases. In assays using recombinant kinases, MELK kinase activity was 20-fold more sensitive to THZ-4-63-1, than that of Aurora A, Aurora B, CDK1, or PLK1 (FIG. 1B).

[2] = system: chromosome passenger complex (Survivin, Aurora B); experiment: Localization of chromosome passenger complex, immunofluorescence; format: cell-based; conditions: with nocodazole (0.33 μM) and MG132 (10 μM) 3 h
Protocol: Cell lysates were prepared for immunoblotting. […] HeLa cells were treated with DMSO or THZ-4-63-1 (5 μM) for 4 h followed by 1 h treatment of MG132 (10 μM). Cells were fixed and stained with anti-H3T3ph and anti-CREST. […] Cells were treated as in FIG. 2, Panel D, and additionally treated with MG132 (10 μM) for 1 h before fixation. The histogram indicates the quantification of H3S10ph signal. […] MCF-10A cells stably expressing empty vector (EV) or MELK were fixed for immunostaining. Images were captured with identical exposure time. H3T3ph intensity was quantified by the use of ImageJ. […] Recombinant MELK protein (kinase domain) was incubated with recombinant Histone H3 for 30 min at 30° C. Samples were subjected to immunoblotting using the indicated antibodies. […] Cells stably expressing GFP-MELK were fixed by formaldehyde and stained with anti-H3S10ph. […] Asynchronized (Async.) or nocodazole-arrested mitotic cells were subjected to fractionation, with sample prepared for immunoblotting. Panels H and I are images showing that MELK inhibition impairs the localization of chromosome passenger complex (CPC), indicated by the immunofluorescence detecting Survivin (G) and Aurora B (H). In addition to the presence of doxycyclin or THZ-4-63-1, cells were treated with nocodazole (0.33 μM) and MG132 (10 μM) for 3 h before fixation. […]

Aurora B = Aurora B (Homo sapiens, UniProt Q96GD4); experiment: Recombinant mitotic kinase assay, Aurora B; format: biochemical; conditions: recombinant kinases
Protocol: as §1, §2

Aurora B, sequence (Q96GD4 whole entry): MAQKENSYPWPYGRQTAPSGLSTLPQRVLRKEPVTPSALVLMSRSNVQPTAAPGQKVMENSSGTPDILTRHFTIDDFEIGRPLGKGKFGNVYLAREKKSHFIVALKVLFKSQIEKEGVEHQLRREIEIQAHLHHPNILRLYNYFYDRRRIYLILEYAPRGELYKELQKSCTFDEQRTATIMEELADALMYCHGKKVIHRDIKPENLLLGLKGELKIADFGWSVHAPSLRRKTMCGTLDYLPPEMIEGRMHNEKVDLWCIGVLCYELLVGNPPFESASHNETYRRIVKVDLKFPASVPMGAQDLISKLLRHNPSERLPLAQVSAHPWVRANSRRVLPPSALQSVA
MARK1, sequence (Q9P0L2 whole entry, species assumed): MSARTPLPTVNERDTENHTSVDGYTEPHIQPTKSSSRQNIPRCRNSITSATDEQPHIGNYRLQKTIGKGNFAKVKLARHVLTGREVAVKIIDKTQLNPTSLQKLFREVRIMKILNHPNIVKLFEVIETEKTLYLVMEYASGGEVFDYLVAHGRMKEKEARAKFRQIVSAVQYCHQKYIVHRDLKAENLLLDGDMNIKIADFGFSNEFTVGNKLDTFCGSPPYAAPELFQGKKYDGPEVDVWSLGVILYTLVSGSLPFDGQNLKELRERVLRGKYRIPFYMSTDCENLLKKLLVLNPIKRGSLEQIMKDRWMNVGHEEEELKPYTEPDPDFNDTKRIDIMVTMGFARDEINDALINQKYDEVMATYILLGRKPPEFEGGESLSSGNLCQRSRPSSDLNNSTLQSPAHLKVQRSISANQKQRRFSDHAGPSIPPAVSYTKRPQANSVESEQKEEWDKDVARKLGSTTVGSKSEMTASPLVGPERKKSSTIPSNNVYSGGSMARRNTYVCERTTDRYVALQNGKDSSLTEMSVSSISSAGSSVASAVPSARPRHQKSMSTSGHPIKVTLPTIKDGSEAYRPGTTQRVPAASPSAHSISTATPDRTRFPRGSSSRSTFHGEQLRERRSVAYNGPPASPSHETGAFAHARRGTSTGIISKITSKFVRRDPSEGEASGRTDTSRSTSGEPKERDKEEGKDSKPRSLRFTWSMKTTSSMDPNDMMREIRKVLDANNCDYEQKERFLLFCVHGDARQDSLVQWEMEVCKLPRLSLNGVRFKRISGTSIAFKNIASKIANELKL

`CN(C)Cc1ccc(-n2c(=O)ccc3cnc4ccc(-c5cc(Cl)c(O)c(Cl)c5)cc4c32)cc1` [THZ-4-63-1] was tested, and the “Time from nuclear envelope breakdown (NEBD) to anaphase, mean” value (U2OS cells) was 66.4 min, the “Protein amount of mitotic factors (Cyclin B1, MELK, Aurora B)” value [1] was “efficiently reduced the protein amount of these mitotic factors” and the “Selectivity for MELK over MARK1” value (MARK1) was “preferentially targets MELK”. The “Centromeric localization of CPC subunits Survivin and Aurora B” value [2] was “became diffusive” and the “MELK kinase activity more sensitive than that of Aurora B” value (Aurora B) was 20 fold.
